{
  "source": "paper PMC9926234",
  "about": "“Iterative computational design and crystallographic screening identifies potent inhibitors targeting the Nsp3 macrodomain of SARS-CoV-2” (Proceedings of the National Academy of Sciences of the …, 2023)",
  "key": {"[1]": {"target": "T1, SARS-CoV-2 NSP3 Mac1 (Severe acute respiratory syndrome coronavirus 2, UniProt P0DTD1)", "design": "contains a conserved macrodomain enzyme (Mac1); differential scanning fluorimetry, maximum thermal upshift", "conditions": "binder"}, "[2]": {"target": "T2, TARG1 (Homo sapiens, UniProt Q9Y530)", "T2 construct": "Targ1_HTRF; HTRF assay; pET22b(+); His6, TEV; 1-153; made in house", "T2 sequence (Q9Y530 with tags, fused parts or gaps)": "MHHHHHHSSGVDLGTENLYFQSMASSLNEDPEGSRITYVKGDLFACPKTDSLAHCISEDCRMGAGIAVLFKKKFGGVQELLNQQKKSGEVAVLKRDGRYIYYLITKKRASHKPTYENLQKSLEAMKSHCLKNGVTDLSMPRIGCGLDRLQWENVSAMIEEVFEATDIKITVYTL", "experiment": "adapted HTRF-based peptide displacement assay (off-target)", "type": "binding", "conditions": "for binding / activity against TARG1: compound at 160 µM; for selectivity for viral Mac1 over human macrodomain: versus TARG1, in words"}, "[3]": {"target": "T3, MacroD2 (Homo sapiens, UniProt A1Z1Q3)", "T3 construct": "MacroD2_HTRF; HTRF assay; pET22b(+); His6, TEV, Avi; made in house", "T3 sequence (A1Z1Q3 with tags, fused parts or gaps)": "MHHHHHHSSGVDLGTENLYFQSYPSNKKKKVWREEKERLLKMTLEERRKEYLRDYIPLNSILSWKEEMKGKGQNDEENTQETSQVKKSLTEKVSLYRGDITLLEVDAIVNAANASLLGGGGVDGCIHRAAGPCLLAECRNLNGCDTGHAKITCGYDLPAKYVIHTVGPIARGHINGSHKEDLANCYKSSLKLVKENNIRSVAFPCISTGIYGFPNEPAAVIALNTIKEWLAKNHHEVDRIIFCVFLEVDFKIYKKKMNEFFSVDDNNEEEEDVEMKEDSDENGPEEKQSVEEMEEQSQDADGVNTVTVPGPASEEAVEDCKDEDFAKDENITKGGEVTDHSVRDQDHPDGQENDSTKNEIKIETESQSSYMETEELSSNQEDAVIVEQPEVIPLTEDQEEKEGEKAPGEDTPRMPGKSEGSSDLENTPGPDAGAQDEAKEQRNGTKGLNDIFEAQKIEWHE", "experiment": "adapted HTRF-based peptide displacement assay (off-target)", "type": "binding", "conditions": "for selectivity for viral Mac1 over human macrodomain: versus MacroD2, in words"}, "[4]": {"system": "P-glycoprotein (human MDR1)", "experiment": "in vitro", "conditions": "dog; for Papp: MDCK-MDR1, pH 7.4, permeability, MDR1-MDCKII; for Papp A→B / Papp B→A: MDCK-MDR1, pH 7.4", "protocol": "Permeability of compounds was assessed using canine MDR1 knockout and human MDR1 knockin MDCKII cells (MDR1-MDCKII) (Sigma-Aldrich, MTOX1303) in confluent monolayers expressing P-glycoprotein (P-gp) at Enamine biological services Bienta LTD (Kyiv, Ukraine).\nCanine MDR1 knockout, human MDR1 knockin MDCKII cell (MDR1-MDCKII) (Sigma-Aldrich,\nMTOX1303) suspension (400 μl) was added to each well of high throughput screening multiwell\ninsert system plates. Test compounds were prepared as 20 mM DMSO stocks. The test compound\n(300 µl) was dissolved in transport buffer (9.5 g/l Hanks’ balanced salt solution and 0.35 g/l NaHCO3\nwells whereas 1000 µl of transport buffer was added to transport analysis plate wells in order to\ndetermine apical (A) to basolateral (B) transport. Basolateral to apical transport was measured by\nadding 1000 µl of the test compound solution into the transport analysis plate wells whereas 300\nµl of buffer was used to fill the filter plate wells.\nwere taken from the donor and receiver compartments for LC-MS/MS analysis. Samples were\nmixed with acetonitrile followed by protein sedimentation by centrifugation at 1000 rpm for 10 min.\nHPLC coupled with tandem mass spectroscopy was performed using the Shimadzu Prominence\nHPLC system coupled with the API 5000 (PE Sciex) spectrometer. Both the positive and negative\nion modes of the TurboIonSpray ion source were used. The apparent permeability (Papp) was\ncomputed using the equation 1, where VA is the volume of transport buffer in acceptor wel, Area is\nthe surface area of the insert, Time is the assay time, [drug]acc is the peak area of test compound\nin acceptor well, and [drug]initial,d is the initial amount of the test compound in a donor well."}, "[5]": {"target": "T1, SARS-CoV-2 NSP3 Mac1", "experiment": "biochemical", "type": "binding"}, "[6]": {"target": "T1, SARS-CoV-2 NSP3 Mac1", "type": "binding", "conditions": "for Refined occupancy: ligand occupancy after refinement (phenix.refine)"}, "[7]": {"system": "SARS-CoV-2 NSP3 Mac1", "experiment": "Overall hit call (binding in crystallographic soaking or the HTRF-based binding assay)", "source_text": "Supplement pnas.2212931120.sd01.xlsx, sheet \"Compound Summary\" | column: HIT*"}, "[8]": {"target": "T1, SARS-CoV-2 NSP3 Mac1", "type": "binding", "design": "contains a conserved macrodomain enzyme (Mac1)", "outline": "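Differential scanning fluorimetry using 5 µM Fluorescent Yellow dye in place of SYPRO Orange. Compounds run in triplicate at seven two-fold dilutions from 1,000 or 100 μM, with ΔTma taken against a DMSO control in the same plate region. Dose-response significance assessed by Spearman's coefficient between concentration and ΔTma.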"}, "[9]": {"conditions": "PanDDA event map, 1 minus background density correction, crystal soaking of Mac1"}, "[10]": {"conditions": "PanDDA event map, crystal soak, Compound_concentration 100 mM, Echo_dispense_volume 40 nl"}, "[11]": {"conditions": "crystal soak, Compound_concentration 100 mM, Echo_dispense_volume 40 nl, PanDDA run (background map) dmso_34, nohits_35 or nohits_62"}, "[12]": {"conditions": "PanDDA event map background density correction, crystal soak, compound concentration 100 mM"}, "[13]": {"conditions": "ligand modeled in the crystal structure, crystal soak, compound concentration 100 mM"}},
  "note": "“And” between values parts separate entries of the source, which are not always exact repeats. Equal entries are not always repeated. Where two headings read alike, the source gives them in different places.",
  "data": [
    {"smiles": "CC(CSc1nnc2[nH]cnn12)c1ccccc1", "note": "(stereo not drawn) [Z3280, ZINC000920153280]", "values": [
      {"measurement": "DSF max dTma", "setting": "[1]", "result": 0, "unit": "degC"}
    ]},
    {"smiles": "O=C1CCCN1Nc1ncnc2[nH]c3cc(F)ccc3c12", "note": "[LRH-0003]", "values": [
      {"measurement": "binding / activity against TARG1", "setting": "[2]", "result": "neither neutral compounds LRH-0003 and LRH-0008 had measurable binding"},
      {"measurement": "binding / activity against MacroD2", "setting": "[3]; compound at 160 µM", "result": "neither neutral compounds LRH-0003 and LRH-0008 had measurable binding"},
      {"measurement": "Papp", "setting": "[4]; apical to basal", "result": 13.8, "unit": "×10⁻⁶ cm/s"},
      {"measurement": "Papp", "setting": "[4]; basal to apical", "result": 24.3, "unit": "×10⁻⁶ cm/s"}
    ]},
    {"smiles": "O=C(O)[C@H]1CCCC[C@H]1Nc1ncnc2[nH]c3cc(F)ccc3c12", "note": "[LRH-0021]", "values": [
      {"measurement": "binding to Mac1 in the HTRF assay, result in words", "setting": "[5]", "result": "equipotent to LRH-0003"},
      {"measurement": "IC50", "setting": "[5]; IC50 [µM], HTRF ADPr-conjugated peptide displacement", "result": 1.7, "unit": "µM"},
      {"measurement": "Ki", "setting": "[5]; Ki*** [µM]", "result": 1.5, "unit": "µM"},
      {"measurement": "binding / activity against TARG1", "setting": "[2]", "result": "showed binding"},
      {"measurement": "1-BDC (PanDDA)", "setting": "[6]; [9]", "result": 0.12},
      {"measurement": "1-BDC", "setting": "[6]; [10]", "result": 0.05},
      {"measurement": "1-BDC", "setting": "[6]; PanDDA event map, crystal soak, Compound_concentration 100 mM, Echo_dispense_volume 80 nl", "result": 0.12},
      {"measurement": "PanDDA hit?", "setting": "[6]; [11]", "result": "TRUE"},
      {"measurement": "PanDDA hit?", "setting": "[6]; crystal soak, Compound_concentration 100 mM, Echo_dispense_volume 80 nl, PanDDA run dmso_34", "result": "TRUE"},
      {"measurement": "Modeled?", "setting": "[6]; ligand modeled, crystal soak, Compound_concentration 100 mM, Echo_dispense_volume 80 nl", "result": "TRUE"},
      {"measurement": "Refined occupancy", "setting": "[6]; crystal soaking of Mac1", "result": 24},
      {"measurement": "HIT*", "setting": "[7]", "result": "Y"},
      {"measurement": "Papp", "setting": "[4]; apical to basal", "result": 12, "unit": "×10⁻⁶ cm/s"},
      {"measurement": "Papp", "setting": "[4]; basal to apical", "result": 9.1, "unit": "×10⁻⁶ cm/s"}
    ]},
    {"smiles": "Nc1ncnc(N2CCC(Oc3ccncc3)C2)c1Cl", "note": "(stereo not drawn) [Z9710, ZINC000302059710]", "values": [
      {"measurement": "DSF max dTma", "setting": "[1]", "result": 0, "unit": "degC"}
    ]},
    {"smiles": "O=C(NC1c2cccc(O)c2CC1C(=O)O)c1ccc2[nH]cnc2c1", "note": "(stereo not drawn) [Z8539_2001]", "values": [
      {"measurement": "binding to Mac1 in the HTRF assay, result in words", "setting": "[5]", "result": "did not affect the binding affinity"},
      {"measurement": "IC50", "setting": "[5]; HTRF ADPr-conjugated peptide displacement, read-out: IC50", "result": 5.4, "unit": "µM"},
      {"measurement": "Ki", "setting": "[5]; read-out: Ki***", "result": 4.7, "unit": "µM"},
      {"measurement": "selectivity for viral Mac1 over human macrodomain", "setting": "[2]", "result": "selective for viral Mac1"},
      {"measurement": "selectivity for viral Mac1 over human macrodomain", "setting": "[3]", "result": "selective for viral Mac1"},
      {"measurement": "1-BDC", "setting": "[6]; [12]", "result": "0.23 and 0.42"},
      {"measurement": "1-BDC (PanDDA)", "setting": "[6]; [9]", "result": 0.23},
      {"measurement": "1-BDC", "setting": "[6]; [10]", "result": 0.21},
      {"measurement": "PanDDA hit?", "setting": "[6]; [11]", "result": "TRUE"},
      {"measurement": "Modeled?", "setting": "[6]; [13]", "result": "TRUE"},
      {"measurement": "Refined occupancy", "setting": "[6]; crystal soaking of Mac1", "result": 46},
      {"measurement": "HIT*", "setting": "[7]", "result": "Y"},
      {"measurement": "Papp A→B", "setting": "[4]", "result": "1.1 ± 0.1", "unit": "×10⁻⁶ cm/s"},
      {"measurement": "Papp B→A", "setting": "[4]", "result": 0.5, "unit": "×10⁻⁶ cm/s"}
    ]},
    {"smiles": "Nc1ncnc2c1ncn2Cc1cccc(C(F)(F)F)c1", "note": "[Z0893, ZINC000110510893]", "values": [
      {"measurement": "DSF max dTma", "setting": "[1]", "result": 0.5, "unit": "degC"}
    ]},
    {"smiles": "Nc1ncnc2c1ncn2Cc1ccc(Cl)cn1", "note": "[Z0078, ZINC000559260078]", "values": [
      {"measurement": "DSF max dTma", "setting": "[1]", "result": 0.98, "unit": "degC"}
    ]},
    {"smiles": "Nc1ncnc2c1ncn2Cc1cc(-c2ccco2)on1", "note": "[Z4827, ZINC000681764827]", "values": [
      {"measurement": "DSF max dTma", "setting": "[1]", "result": 0.63, "unit": "degC"}
    ]},
    {"smiles": "O=C(c1cn[nH]c(=O)c1)N1CCC(CF)(C(=O)O)C1", "note": "(stereo not drawn) [R8407, REAL250001448407]", "values": [
      {"measurement": "DSF max dTma", "setting": "[1]", "result": 0, "unit": "degC"}
    ]},
    {"smiles": "O=C(NC1c2cccc(O)c2CC1C(=O)O)c1ccc2[nH]c(CO)nc2c1", "note": "(stereo not drawn) [Z8539_0002]", "values": [
      {"measurement": "IC50", "setting": "[5]; HTRF ADPr-peptide displacement from SARS-CoV-2 Mac1, read-out: IC50", "result": "1.3 to 6.7", "unit": "µM"},
      {"measurement": "IC50", "setting": "[5]; HTRF, read-out: IC50", "result": "1.3 µM and 6.7 µM"},
      {"measurement": "Ki", "setting": "[5]; Ki estimation from HTRF-derived IC50, Cheng-Prusoff, peptide 400nM, Kd 2.68µM, read-out: Ki***", "result": "1.1 µM and 5.8 µM"},
      {"measurement": "selectivity for viral Mac1 over human macrodomain", "setting": "[2]", "result": "selective for viral Mac1"},
      {"measurement": "selectivity for viral Mac1 over human macrodomain", "setting": "[3]", "result": "selective for viral Mac1"},
      {"measurement": "1-BDC", "setting": "[6]; PanDDA 1-BDC value of the event, crystal soak, compound concentration 100 mM, per dataset", "result": 0.26},
      {"measurement": "1-BDC", "setting": "[6]; [12]", "result": 0.19},
      {"measurement": "1-BDC", "setting": "[6]; [9]", "result": 0.29},
      {"measurement": "1-BDC (PanDDA)", "setting": "[6]; [9]", "result": 0.19},
      {"measurement": "1-BDC", "setting": "[6]; [10]", "result": 0.29},
      {"measurement": "PanDDA hit?", "setting": "[6]; [11]", "result": "TRUE"},
      {"measurement": "PanDDA hit?", "setting": "[6]; crystal soak, compound concentration 100 mM, per dataset", "result": "TRUE"},
      {"measurement": "Modeled?", "setting": "[6]; ligand modeled from this dataset, compound concentration 100 mM, Echo dispense volume 40 or 80 nl", "result": "TRUE"},
      {"measurement": "Modeled?", "setting": "[6]; [13]", "result": "TRUE"},
      {"measurement": "HIT*", "setting": "[6]; true hit = binding in crystallographic soaking or the HTRF-based binding assay", "result": "Y"},
      {"measurement": "Papp A→B", "setting": "[4]", "result": "0.8 ± 0.2", "unit": "×10⁻⁶ cm/s"},
      {"measurement": "Papp B→A", "setting": "[4]", "result": "1.4 ± 1", "unit": "×10⁻⁶ cm/s"},
      {"measurement": "Spearman est (compound concentration vs apparent Tm)", "setting": "[8]; DSF dose responsiveness, 1 µM nsp3 mac1, adj p given", "result": 0.74},
      {"measurement": "DSF max dTma", "setting": "[8]; maximal thermal upshift", "result": "5.39 ˚C"}
    ]}
  ]
}
